These results are taken from patent US5364942A, “Sulphonylbenzyl-substituted imidazopyridines” (Bayer Aktiengesellschaft, priority 1992, dated 1994).

The pIC50 is the IC50 on a negative log10 scale, so that one unit is a factor of ten. Usually inhibition stands for the change of the read-out against control, counted positive when it falls. Low readings indicate little suppression, high ones strong suppression. For orientation: pKi means the negative decadic logarithm of the Ki, by convention in mol/L. A lower pKi goes with a large Ki.

pIC50, pKi: −log10 of the molar value.

Test [1] deals with angiotensin II-induced contraction of the isolated rabbit aorta. Description: Inhibition of angiotensin II-induced vascular contraction on isolated aortic rings of the rabbit in vitro. The class given is cell-based. Conditions: Oryctolagus cuniculus, agonist angiotensin II, effect at 3rd = submaximal agonist concentration, read-out: IC50 against contractions induced by: AII. The method, then: Rabbits of both sexes are stunned by a blow to the neck and exsanguinated, or in some cases anaesthetised with Nembutal (about 60-80 mg/kg i.v.) and sacrificed by opening the thorax. The thoracic aorta is removed, freed from attached connective tissue and divided into ring segments 1.5 mm wide, and the segments are introduced individually, under an initial load of about 3.5 g, in 10 ml organ baths containing carbogen-gassed Krebs-Henseleit nutrient solution thermostatically controlled at 37° C. and having the following composition: 119 mmol/l of NaCl; 2.5 mmol/l of CaCl2 ×2H2 O; 1.2 mmol/l of KH2 PO4; 10 mmol/l of glucose; 4.8 mmol/l of KCl; 1.4 mmol/l of MgSO4 ×7H2 O and 25 mmol/l of NaHCO3.
The contractions are recorded isometrically by Statham UC2 cells via bridged amplifiers (ifd Mulheim or DSM Aalen) and are digitised and evaluated by means of an A/D converter (System 570, Keithley Munich). The agonist dose/effect curves (DEC) are plotted hourly. With every DEC, 3 or 4 individual concentrations are applied to the baths at intervals of 4 minutes. The end of the DEC and subsequent wash-out cycles (16 times for in each case about 5 seconds/minute with the above nutrient solution) is followed by a 28-minute rest or incubation phase, during which the contractions as a rule reach the starting value again.
The level of the third DEC in the normal case is used as the reference parameter for evaluation of the test substance which is to be investigated in subsequent passes and is applied to the baths for the following DECs at the start of the incubation time at a dosage which increases each time. Each aortic ring is stimulated over the whole day with always the same agonist.
(§1) ______________________________________
Agonists and their standard concentrations (Application
volume per individual dose = 100 μl):
as §1
For calculation of the IC50 (concentration at which the substance under investigation causes 50% inhibition), the particular effect at the 3rd=submaximal agonist concentration is taken as the basis.

For test [2], the system named is smooth muscle cells. The test can be described thus: Inhibition of proliferation of smooth muscle cells (3H-thymidine incorporation). The following applies: 10^-6 M, smooth muscle cells from aortas of rats or pigs. The class given is cell-based. The method, then:
Smooth muscle cells obtained from the aortas of rats or pigs by the media explantate technique [R. Ross, J. Cell. Biol. 50, 172, 1971] are used to determine the antiproliferative action of the compounds.
The cells are sown in suitable culture dishes, as a rule 24-hole plates, and cultured for 2-3 days in medium 199 with 7.5% of FCS and 7.5% of NCS, 2 mM L-glutamine and 15 mM HEPES, pH 7.4, in 5% CO2 at 37° C. The cells are then synchronised for 2-3 days by withdrawal of the serum, and subsequently stimulated into growth with AII, serum or other factors. Test compounds are added at the same time. […]
A general note: Dividing cells build labelled thymidine or BrdU into new DNA.

The target in test [3] is T1, angiotensin II receptor (Bos taurus, UniProt P25104).
T1 construct: partly purified membrane fractions of bovine AC with radioactive angiotensin II; from tissue; host or cells: bovine adrenal cortex, partly purified membrane fractions
T1 sequence (P25104 1-359): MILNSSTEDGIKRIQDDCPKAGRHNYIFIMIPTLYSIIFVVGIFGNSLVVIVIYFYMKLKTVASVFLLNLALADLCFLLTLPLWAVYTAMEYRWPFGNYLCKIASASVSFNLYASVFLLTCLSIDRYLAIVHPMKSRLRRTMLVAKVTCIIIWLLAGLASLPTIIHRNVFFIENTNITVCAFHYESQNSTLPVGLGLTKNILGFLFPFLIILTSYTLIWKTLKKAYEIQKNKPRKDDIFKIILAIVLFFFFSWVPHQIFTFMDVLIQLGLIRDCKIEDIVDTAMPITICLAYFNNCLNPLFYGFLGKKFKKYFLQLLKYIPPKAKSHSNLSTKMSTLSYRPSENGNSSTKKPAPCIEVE
The test can be described thus: Interaction with the angiotensin II receptor on membrane fractions of the adrenal cortex. The following applies: bovine adrenal cortex membranes; 3H-angiotensin II (3-5 nM); 60 minutes at room temperature. In kind it is binding, cattle. On the procedure:
Adrenal cortices from cattle (AC), which are freshly removed and carefully freed from medulla of the capsule, are comminuted to a coarse membrane homogenate in sucrose solution (0.32M) with the aid of an Ultra-Turrax (Janke & Kunkel, Staufen i.B.), and the homogenate is partly purified to membrane fractions in two centrifugation steps.
The investigations on receptor bonding are carried out on partly purified membrane fractions of bovine AC with radioactive angiotensin II in an assay volume of 0.25 ml, which specifically contains the partly purified membranes (50-80 μg), 3H-angiotensin II (3-5 nM), test buffer solution (50 mM Tris, pH 7.2), 5 mM MgCl2 and the substances to be investigated. After an incubation time of 60 minutes at room temperature, the non-bonded radioactivity of the samples is separated off by means of a moistened glass fibre filter (Whatman GF/C) and, after the protein has been washed with ice-cold buffer solution (50 mM Tris/HCl, pH 7.4, 5% PEG 6000), the bonded radioactivity is measured by spectrophotometry in a scintillation cocktail. The raw data were analysed for Ki and IC50 values by computer programs (Ki : IC50 values corrected for the radioactivity used; IC50 values: concentration at which the substance under investigation causes 50% inhibition of the specific bonding of the radio ligand).

For test [4], the system named is angiotensin II-infused rats. Description: Blood pressure measurements on angiotensin II-infused rats. The class given is in vivo, Male Wistar rats. Conditions: angiotensin II-infused rats (0.3 μg/kg/minute), anaesthetised; dose 0.1 mg/kg p.o. The method, then: Male Wistar rats (Moellegaard, Copenhagen, Denmark) with a body weight of 300-350 g are anaesthetised with thiopental (100 mg/kg i.p.). After tracheotomy, a catheter for blood pressure measurement is inserted into the femoral artery and a catheter for angiotensin II infusion and a catheter for administration of the substance are inserted into the femoral veins. After administration of the ganglion blocker pentolinium (5 mg/kg i.v.), the angiotensin II infusion (0.3 μg/kg/minute) is started. As soon as the blood pressure values have reached a stable plateau, the test substances are administered either intravenously, or orally as a suspension or solution in 0.5% of tylose. The changes in blood pressure under the influence of the substance are shown as the mean values ±SEM in the table.

Consider `CCCCc1nc2cccnc2n1Cc1ccc(S(=O)(=O)N2CCCCC2C(=O)O)cc1Cl` (racemic) [Example 2, rac-4-[{2-Butyl-imidazo[4,5-b]pyridin}-3-yl]methyl-3-chlorobenzenesulphonyl-N-(2-carboxy)piperidinide], for which the pIC50 in test [1] was 6.49. The compound further had an inhibition at 1 µM in test [2] of 40%. Moreover, the pKi in test [3] is 6.00.

With `CCCCc1nc2cccnc2n1Cc1ccc(S(=O)(=O)N2CCC[C@H]2C(=O)O)cc1Cl` [Example 5], the negative logarithm of the IC50 (pIC50) in test [1] was 7.40. Further, the inhibition at 1 µM in test [2] was 70%. The compound further had a pKi in test [3] of 6.26.

Consider `COC(=O)[C@@H]1CCCN1S(=O)(=O)c1ccc(Cn2c(C3CC3)nc3c(C)ccnc32)c(Cl)c1` [Example 19], for which the pIC50 in test [1] was 8.22.

With `CCc1nc2c(C)cc(C)nc2n1Cc1ccc(S(=O)(=O)N2CCC[C@H]2C(=O)OC)cc1Cl` [Example 20, S-4-[[2-Ethyl-imidazo[4,5-b]5,7-dimethyl-pyridin]-3-yl]methyl-3-chloro-benzenesulphonyl-N-(2-methoxy-carbonyl)pyrrolidinide], in test [1], the pIC50 is 8.22. The “ΔP (change in blood pressure)” value in test [4] is on record as -48 mm Hg.

`COC(=O)[C@@H]1CCCN1S(=O)(=O)c1ccc(Cn2c(C3CC3)nc3c(C)cc(C)nc32)c(Cl)c1` [Example 31]: the pIC50 in test [1] is 8.40. For the same compound, in test [4], the “ΔP (change in blood pressure)” value was -62 mm Hg.

As to `Cc1cc(C)c2nc(C3CC3)n(Cc3ccc(S(=O)(=O)N4CCC[C@H]4C(=O)O)cc3Cl)c2n1` [Example 39], the pIC50 in test [1] is 8.52. Further, the “ΔP (change in blood pressure)” value in test [4] is recorded as -32 mm Hg.

As for `CCc1nc2c(C)cc(C)nc2n1Cc1ccc(S(=O)(=O)N2CCC[C@H]2C(=O)O)cc1Cl` [Example 41], the pIC50 in test [1] is 8.52.
